Experimental data as given in US8993626B2, “Methods of treatment using sterculic acid” (The United States of America, as represented by the …, priority 2010, dated 2015).
“Also recorded” adds a separate entry of the source.

What was measured:
[1] = test system: ARPE19 cells; assay: CellTiter-Glo luminescent cell viability assay, 15 μM 7KCh-induced cytotoxicity; assay type: cell-based, human; details: 1 μM fatty acid + 15 μM 7KCh, 24 hr, CellTiter-Glo
Method: Error bar: standard deviation, n=4.
CellTiter-Glo® Luminescent Cell Viability Assay is a homogeneous method of determining the number of viable cells in culture based on quantitation of the ATP (luminescent signal) present, an indicator of metabolically active cells.
The contents in a plate were mixed for 2 min on an orbital shaker to induce cell lysis.
5) The plate was allowed to incubate at room temperature for 10 min to stabilize luminescent signal.

[2] = test system: ARPE19 cells; assay: Phase-contrast images of cells after co-treatment with 15 μM 7KCh; assay type: cell-based, human; details: 1 μM fatty acid + 15 μM 7KCh, 24 hr
From the text: FIG. 8 depicts phase-contrast images of ARPE19 cells at 24 hr after sterculic acid co-treatment with 7KCh.

[3] = test system: ARPE-19 cells; assay: Fatty acids against 7KCh-mediated cell death (CCK8); assay type: cell-based
Method: FIGS. 12A-12C depict ARPE-19 cell viability in response to 12 μM 7KCh with or without 0.1-5 μM (A) sterculic acid and (B) stearic acid after 24 hr treatments. Error bars indicate the standard deviations. n=3-5. Two-tailed Student's t-test. (C) Representative images of changes in cell morphology in response to 12 μM 7KCh with or without 1 μM sterculic acid and stearic acid after 24 hr treatments.
(§1) ARPE-19 cells were seeded in 24-well plates with 1×10^5 cells per well and allowed to recover for 16-24 hr. Once confluency reached approximately 90%, the effect of the fatty acids against 7KCh-mediated cell death was examined 24 hr after incubation in serum-free medium with 12 μM 7KCh. Fatty acids were tested at 0.1, 0.5, 1, 5 and 10 μM concentrations. The effects of the fatty acids against 7KCh-mediated inflammation and ER stress were examined by incubating cells in 1 μM fatty acids with either 8 μM 7KCh (24 hr for quantitative real-time PCR (qRT-PCR), 24 and 48 hr for immunoblot), or 6 μM 7KCh for 48 hr (for ELISA). Three individual experiments were performed for each treatment with quadruplicate measurements performed for each experiment in 24-well plates.
The cell viability was determined by the dehydrogenase activity of the ARPE-19 cells using Cell Counting Kit-8 (CCK8, Dojindo, Gaithersburg, Md.) according to manufacturer's protocol.
The lowest effective concentrations of fatty acids that offset the 7KCh-mediated cell death were determined. […] Table 3 lists the lowest concentrations of these fatty acids required to maintain full cell viability against 12 μM 7KCh treatment. All unsaturated fatty acids protected against 7KCh-induced cell death. […] DHA, α-linolenic, and linoleic acid prevented 7KCh-mediated cell death at 5 μM but the rest of unsaturated fatty acids and dihydrosterculic acid required 10 μM to be protective.

[4] = test system: ARPE-19 cells; assay: qRT-PCR of inflammatory cytokines and ER stress markers, 7KCh-mediated inflammation; assay type: cell-based; details: for effect on 7KCh-mediated mRNA induction (inflammatory response): 1 μM fatty acid + 8 μM 7KCh, 24 hr, FIG. 13
Method: FIGS. 13A-13D depict mRNA expressions of (A) VEGF, (B) IL-6, (C) GRP78, and (D) CHOP in response to 8 μM 7KCh with or without 1 μM long-chain fatty acids. Error bars indicate the standard deviations. *p<0.05 comparing to 7KCh, n=3. Two-tailed Student's t-test.
(§2) FIGS. 14A-14D depict mRNA expressions of (A) VEGF, (B) IL-1b, (C) IL-6, and (D) IL-8 in response to 8 μM 7KCh, 1 μM sterculic acid, 1 μM stearic acid, or the combinations of 7KCh with either sterculic acid or stearic acid. Error bars indicate the standard deviations. *p<0.05 comparing to 7KCh, n=4. Two-tailed Student's t-test.
as §2, with “15A-15D” for “14A-14D”, “TNF-α,” for “VEGF,”, “TGF-β1,” for “IL-1b,”, “GRP78,” for “IL-6,”, “CHOP” for “IL-8”, “n=3-4.” for “n=4.”
as §1
(§3) The RNA was extracted using RNeasy Mini Kit (Qiagen, Valencia, Calif.). The reverse transcription was performed with reagents and kits from Invitrogen. Quantification of mRNA expression was performed using the Taqman gene expression assays and the following primers (VEGFa, Hs00173626_m1; IL-1β, Hs01555413_m1; IL-6, Hs00174131_m1; IL-8, Hs00174103_m1; IκBα, Hs00153283_m1; GRP78, Hs99999174_m1; CHOP, Hs01090850_m1; NOX2, Hs00166163_m1; NOX4, Hs01558199_m1; SCD, Hs00748952 s1; TNF-α, Hs00174128_m1; TGF-β1, Hs00998133_m1; GAPD, 4352934e). GAPD expression was used as an endogenous standard. All qRT-PCR experiments were measured in triplicates in an ABI 7500 Real-Time PCR Instrument (Applied Biosystems, Foster City, Calif.). The results of each treatment were normalized and presented in percentage relative to the vehicle-only control.

[5] = test system: D407 cells; assay: 7-ketocholesterol-mediated cytotoxicity, 24-well CCK-8 viability; details: 5 μM co-treatment with 11 μM 7KCh, 24 hr
[6] = test system: ARPE19 cells; assay: Cell Counting Kit-8 viability assay, 15 μM 7KCh-induced cytotoxicity; details: 1 μM fatty acid + 15 μM 7KCh
Method: 4×10^4 cells were seeded onto wells of a 96 well plate. […] Cell viability was determined as celluar dehydrogenase activity and expressed as the percentage of compound treated cells relative to that of untreated controls. error bar: standard deviation, n=4.
The kit allows sensitive colorimetric assays for the determination of the number of viable cells in cell proliferation and cytotoxicity assays. The amount of the formazan dye generated by the activity of dehydrogenases in cells is directly proportional to the number of living cells.
1) Cells were cultivated in a 96 well cell plate (Costar#3599, Corning Incorp, Corning, N.Y.).
2) The cell suspension (40,000 cells/100 μL) were added to 100 μL culture media per well and stood for 15 min at room temperature and cultured at 37° C. in a humidified 5% CO2 atmosphere.
3) Approximately 19 hr after seeding, when the cells were fully confluent, the cells were treated with either DMSO or 1 μM fatty acid in 200 μL of serum free media and subsequently added with 15 μM 7KCh in HPBCD. Then, the plate was swirled for mixing. The cells were also treated with DMSO and HPBCD, which served as vehicle control. The final DMSO and HPBCD concentrations in the media were in the range of 0.1% and 0.0675%, respectively.
Cell viability was expressed as the percentage of compound treated cells relative to that of untreated controls. Prior to measure cell viability, the cells were imaged live by Nikon TE 2000-U inverted fluorescent microscope.

[7] = test system: ARPE19 cells; assay: Microelectronic cell sensor assay (RT-CES), 7KCh-induced cytotoxicity; details: 1 μM fatty acid + 15 μM 7KCh, serum free media
Method: 4×10^4 cells were seeded onto wells of 16× microtiter plates. […] Cell viability was determined as a cell index (CI) calculated from the impedance of each well automatically by the RT-CES system once per hr until the end of the experiment. The data was normalized at the point immediately prior to compound treatment.
RT-CES® System is a cell-based assay system that monitors cellular events by measuring the electronic impedance of sensor electrodes integrated on the bottom of microtiter E-Plates. The presence of the cells will lead to an increase in the electrode impedance. The more cells attached to the sensor, the higher the impedance that could be monitored with RT-CES.
1) Cells were cultivated in the ACEA's 16X E-plate device containing microelectrodes at the bottom of each well to measure contact area and electrical properties of adherent cells. […]
4) Cell growth was monitored periodically (every 1 hr) for indicated durations via calculation of a “cell index” (reflect to the surface area covered by the cells) in each well. […]
6) The sensor devices were put into the incubator again and the cells were continuously monitored cellular status changes.
7) Cell viability was determined as a cell index (CI) calculated from the impedance of each well automatically by the RT-CES system once per hr until the end of the experiment. […]

[8] = test system: ARPE19 cells; assay: 7-ketocholesterol-mediated cytotoxicity, 24-well CCK-8 viability and images; details: 24 hr
[9] = test system: ARPE-19 cells; assay: ELISA of secreted VEGF, IL-6, IL-8 in conditioned medium; assay type: cell-based; details: 1 μM + 6 μM 7KCh, 48 hr
Method: (§4) FIGS. 16A-16E depict the secreted protein levels of (A) VEGF, (B) IL-6, and (C) IL-8 were measure by ELISA 48 hr after treatment with 6 μM 7KCh, 1 μM sterculic acid, 1 μM stearic acid, or the combinations of 7KCh with either sterculic acid or stearic acid. Error bars indicate the standard deviations. *p<0.05 comparing to 7KCh, n=3. Two-tailed Student's t-test. The expressions of GRP78 and CHOP were shown by immunoblots (D) 24 hr or (E) 48 hr after treatment with 8 μM 7KCh, 1 μM sterculic acid, 1 μM stearic acid, or the combinations of 7KCh with either sterculic acid or stearic acid.
as §1
The levels of secreted VEGF, IL-6, IL-8, and TNF-α in conditioned medium of ARPE-19 cell cultures were measured 48 hr after treatments of 6 μM 7KCh and 1 μM fatty acids using the Quantkine ELISA kits from R&D systems (Minneapolis, Minn.). The protein levels were measured in triplicates. The ELISA results were quantified using an Envision multilable plate reader (PerkinElmer, Covina, Calif.) and presented in percentage relative to the vehicle-only control.

[10] = test system: ARPE-19 cells; assay: Immunoblots of CHOP and GRP78; assay type: cell-based; details: 1 μM + 8 μM 7KCh, 24 hr
Method: as §4, §1
Lysis of ARPE-19 cells was performed using MPER buffer solution (Thermo Fisher Scientific) containing Complete Protease Inhibitor Cocktail (Roche Diagnostics). A total of 10 μg protein samples of the cell lysate were separated by SDS-PAGE on 10% Bis-Tris gels (Invitrogen). The gels were blotted on to nitrocellulose membranes (Invitrogen). The proteins were probed with primary antibodies for CHOP (1:1000 dilution), GRP78 (1:1000), or GAPDH (1:2000) at 4° C. overnight. The membranes were then further incubated with anti-rabbit IgG, HRP-linked antibodies (1:2000 dilution) at room temperature for 1 hr. […]

[11] = test system: ARPE-19 cells; assay: qRT-PCR of cytokines in TNF-α treated cells; assay type: cell-based; details: 1 μM fatty acid + 2 ng/ml TNF-α, 24 hr
Method: FIGS. 17A-17D depict the mRNA expressions of (A) IL-1β, (B) IL-8, (C) IκBα, and (D) GRP78 in response to 2 ng/ml TNF-α, 1 μM sterculic acid, 1 μM stearic acid, or the combinations of TNF-α with either sterculic acid or stearic acid. n=3. Error bars indicate the standard deviations.
Tumor necrosis factor-alpha (TNF-α, Roche Diagnostics, Indianapolis, Ind.) was diluted in PBS to make 10 μg/ml stock solution and stored at −20° C. In order to test the anti-inflammation effect of fatty acids against TNF-α, ARPE-19 cells were treated with 2 ng/ml of TNF-α for 24 hr in serum-free medium with or without 1 μM fatty acids. The mRNA expressions of cytokines were then examined using qRT-PCR. Each treatment was performed three times with quadruplicate measurements in each experiment, in 24-well plates.
as §3

Row | Compound | increase of cell viability compared to 7KCh alone treatment [1] [%] | cell morphological changes compared to 7KCh alone [2] | CONC. (μM): lowest concentration required to maintain full cell viability against 7KCh ([3]; 12 μM 7KCh for 24 hr, tested 0.1, 0.5, 1, 5 and 10 μM) [µM] | effect on 7KCh-mediated mRNA induction (inflammatory response) [4] | protection effect at 5 μM [5] | protective effect against cytotoxicity by 7KCh (summary of the viability assays) [6] | increase of cell viability compared to 7KCh alone treatment ([6]; 24 hr, CCK-8) [%] | protection from 7KCh induced cytotoxicity (cell index) [7] | protection of cell confluency and morphology (images) ([8]; 0.5 μM co-treatment with 12 μM 7KCh) | protection of cell confluency and morphology (images) ([8]; 1 μM co-treatment with 12 μM 7KCh) | protection effect at 5 μM ([8]; 5 μM co-treatment with 12 μM 7KCh) | morphological effects on the cells (images) ([3]; 1 μM + 12 μM 7KCh, 24 hr, FIG. 12C) | protective effect against 7KCh-mediated cell death ([3]; 12 μM 7KCh, 24 hr, 0.1-10 μM fatty acid) | antagonistic effect to 7KCh-mediated mRNA induction ([4]; 1 μM + 8 μM 7KCh, FIGS. 14, 15) | effect of fatty acid alone on the mRNA expression of the cytokines ([4]; 1 μM fatty acid alone, no 7KCh, FIGS. 14, 15) | induction of VEGF mRNA ([4]; 8 μM 7KCh alone or with 1 μM fatty acid, FIG. 14A) [fold] | induction of IL-6 mRNA ([4]; 8 μM 7KCh alone or with 1 μM fatty acid, FIG. 14C) [fold] | effect on secreted VEGF, IL-6, IL-8 protein levels [9] | effect on 7KCh-induced CHOP and GRP78 protein expression [10] | antagonist effect to the cytokine inductions by TNF-α [11]
1 | CCCCCCCC/C=C\CCCCCCCC(=O)O [oleic acid] | 10 | more cells compared to 7KCh alone | 10 | either ineffective or enhanced | slight effect; also recorded: not as significant comparing to sterculic acid | slight protective effect | 10 | slight protective effect | no effect | slight effect; also recorded: do not have such protection effect | slight effect; also recorded: slight protection | – | – | – | – | – | – | – | – | –
2 | CCCCCCCCCCCCCCCCCC(=O)O [stearic acid] | – | – | – | either ineffective or enhanced | – | – | – | – | – | – | – | no effect | did not demonstrate any protective effect | did not show any antagonistic effect | no effect | 8.8 | 29 | no measurable effect | no effect | seemed to enhance
